{"source": "paper PMC8869242", "about": "(Biomedicines, 2022)", "key": {"MCF-12A cells": {"system": "MCF-12A cells", "experiment": "Cell proliferation assay (label-free live cell counting), MCF-12A", "format": "cell-based, human", "conditions": "for logIC50 ± SEM: n = 4"}, "MDA-MB-231 breast tumors": {"system": "MDA-MB-231 breast tumors", "experiment": "Histology, Ki-67 immunohistochemistry and TUNEL assay of xenograft tumors", "format": "in vivo, mice", "conditions": "Pd2Spm 5 mg/kg/day, cisplatin 2 mg/kg/day, versus vehicle", "procedure": "For the immunohistochemical study, tissue sections were dewaxed and rehydrated. Slides were submitted to […] by immersion in 10% retrieval solution (Dako) and kept in a water bath at 100 °C for 20 min. After blocking of non-specific staining, slides were incubated with primary antibody for Ki-67 (1:50 dilution, clone MIB-1, Dako) overnight at 4 °C. Slides were then stained with Novolink Polymer Detection Systems (Leica Biosystems Inc., Buffalo Grove, IL, USA) following manufacturer’s instructions, counterstained with hematoxylin and permanently mounted. The nuclear Ki-67 staining was analyzed using Fiji’s high-throughput automatic quantitation with Andy’s Algorithm pipeline, as described elsewhere. The immunoreactivity was evaluated, counting at least 600 nuclei/field from 5 representative fields of the lesion at high magnification, avoiding necrotic areas. The ratio of Ki-67 positive nuclei per all counted nuclei was expressed as a percentage (Ki-67 proliferation index).\nThe paraffin-embedded tumor sections were deparaffinized, rehydrated through a graded series of ethanol and double distilled water and then stained with In Situ Cell Death Detection Kit (Roche Diagnostics GmbH, Mannheim, Germany) as per manufacturer’s instructions. Apoptosis was quantified at single-cell level by counting the number of cells positive for terminal deoxynucleotidyl transferase (TdT) dUTP nick-end labeling (TUNEL-positive cells). Briefly, tumor sections were incubated with 20 µg/mL proteinase K solution (in 10 mM Tris/HCl, pH 7.4–8) for 30 min at 37 °C. Slides were washed and stained with TUNEL reaction mixture (mixture of terminal deoxynucleotidyl transferase with labeled nucleotides) for 60 min at 37 °C in the dark followed by three washes. Slides were mounted with […] Antifade Mounting Medium with DAPI, and coverslips were sealed. At least twenty nonoverlapping high-power microscope fields of each tumor section were captured while avoiding areas with central necrosis. Fluorescence images were acquired using the LionHeart automated microscope at Ex: 520–560 nm and Em: 570–620 nm."}, "[1]": {"system": "chicken embryo chorioallantoic membrane (CAM)", "experiment": "In vivo CAM assay (neovascularization)", "conditions": "for CAM early steps of angiogenesis: number of nodes, junctions and segments / CAM later steps of angiogenesis: total length, total branching length and total segment length: 2 to 8 µM", "procedure": "The chicken embryo chorioallantoic membrane (CAM) assay was used to study the effect of tested drugs on neovascularization, as described elsewhere. Briefly, fertilized chicken eggs were incubated at 37.5 °C in a humidified atmosphere with agitation. After 3 days of incubation, 2.5 mL of albumen was removed to detach developing CAM from the shell. A window in the eggshell was cut off to expose the embryo, and then, the eggshell was sealed with paraffin. Incubation of fertilized eggs continued until day 9, when the windows were unsealed and four paper disks previously sterilized and pre-treated with hydrocortisone ([…] to avoid inflammatory responses) were placed in direct contact with CAM in each egg (3 PBS-soaked disks and 1 VEGF-soaked (10 ng/mL) disk), and windows were re-sealed with paraffin. […] The remaining two disks were used as negative/vehicle (treated with PBS) and positive (treated with VEGF) controls. The eggs were further incubated two more days, and at […], the disks bound to the CAM were removed, placed in PBS and imaged using a contrast-phase microscope (Motic® AE200 inverted microscope, Spectra Services, VWR International) (with a 4X magnification) coupled to a Moticam 5 digital camera. Images were analyzed using the Angiogenesis Analyzer for Fiji."}, "[2]": {"system": "Ehrlich ascites carcinoma (EAC)", "conditions": "4 mg/kg, cited from earlier work; for tumor volume reduction: two injections per week for 2 weeks (cumulative 16 mg/kg); for deaths during treatment: two injections per week for 2 weeks"}, "[3]": {"experiment": "Hematological and plasma biochemical analyses in tumor-bearing mice", "format": "in vivo", "conditions": "Pd2Spm 5 mg/kg/day, cisplatin 2 mg/kg/day, end of study", "procedure": "Red blood cells (RBC), hemoglobin (Hb), hematocrit (Hct), mean corpuscular volume (MCV) and mean corpuscular hemoglobin (MCH) were analyzed in a small aliquot of whole blood using ABX Micros 60 automated analyzer (Horiba ABX SAS, Montpellier, France). The remaining blood was centrifuged at 900× g for 15 min, and plasma was separated into aliquots and frozen at −80 °C for biochemical assays. Plasma parameters were analyzed using commercial kits for aspartate aminotransferase—AST (AST CP, A11A01629), alanine transaminase—ALT (ALT CP, A11A01627), cholesterol (CHOL CP, A11A01634), creatinine (Creatinine 120 CP, A11A01868), glucose (Glucose PAP CP, A11A01668), total protein (Total protein CP, A11A01669), triglycerides (Triglycerides CP, A11A01640) and urea (Urea CP, A11A01641). All parameters were determined with an automated analyzer Pentra 400 (ABX Horiba diagnostics, Montpellier, France)."}, "breast cancer cells": {"system": "breast cancer cells", "conditions": "cited from earlier work"}, "[4]": {"conditions": "mice; cited from earlier work"}, "MDA-MB-231": {"system": "MDA-MB-231", "conditions": "cited from earlier work"}, "MDA-MB-468 TNBC cells": {"system": "MDA-MB-468 TNBC cells", "conditions": "cited from earlier work"}, "[5]": {"conditions": "48 h of incubation, n = 4, read-out: IC50 in µM [95% CI]"}, "[6]": {"conditions": "72 h of incubation, n = 4, read-out: IC50 in µM [95% CI]"}}, "note": "Read-outs that look alike come from different tables or passages of the source."}
{"smiles": "N.N.[Cl][Pt][Cl]", "note": "[Cisplatin, cis-dichlorodiammine platinum(II), reference compound]", "values": [{"measurement": "logIC50 ± SEM", "setting": "MCF-12A cells; 24 h of incubation", "result": "−5.510 ± 0.062"}, {"measurement": "IC50", "setting": "MCF-12A cells; 24 h of incubation, n = 4, read-out: IC50 in µM [95% CI]", "result": 3.1, "unit": "µM"}, {"measurement": "logIC50 ± SEM", "setting": "MCF-12A cells; 48 h of incubation", "result": "−5.988 ± 0.029"}, {"measurement": "IC50", "setting": "MCF-12A cells; [5]", "result": 1, "unit": "µM"}, {"measurement": "logIC50 ± SEM", "setting": "MCF-12A cells; 72 h of incubation", "result": "−5.981 ± 0.026"}, {"measurement": "IC50", "setting": "MCF-12A cells; [6]", "result": 1, "unit": "µM"}, {"measurement": "TUNEL-positive cells in tumors (DNA damage)", "setting": "MDA-MB-231 breast tumors", "result": "significant increase"}, {"measurement": "mitotic count in tumors", "setting": "MDA-MB-231 breast tumors", "result": "mitotic count of vehicle-treated animals was significantly increased compared to cisplatin- and Pd2Spm-treated groups"}, {"measurement": "CAM early steps of angiogenesis: number of nodes, junctions and segments", "setting": "[1]", "result": "decrease, in a dose-dependent manner"}, {"measurement": "CAM later steps of angiogenesis: total length, total branching length and total segment length", "setting": "[1]", "result": "reduced, in a dose-dependent manner"}, {"measurement": "tumor volume reduction", "setting": "[2]; first study", "result": 36.4, "unit": "%"}, {"measurement": "tumor volume reduction", "setting": "[2]; second study", "result": 46.7, "unit": "%"}, {"measurement": "deaths during treatment", "setting": "[2]; first study", "result": "two associated deaths"}, {"measurement": "deaths during treatment", "setting": "[2]; second study", "result": "no associated deaths"}]}
{"smiles": "NCCCNCCCCNCCCN.[Cl][Pd][Cl].[Cl][Pd][Cl]", "note": "[Pd2Spm, dinuclear palladium(II)-spermine chelate]", "values": [{"measurement": "growth inhibition at the highest concentration", "setting": "MCF-12A cells; 100 µM, compared to same dosage of cisplatin", "result": "did not produce a maximum growth inhibition"}, {"measurement": "IC50", "setting": "MCF-12A cells; 24-72 h, read-out: IC50 values (range over incubation times)", "result": "89.5 to 229", "unit": "µM"}, {"measurement": "logIC50 ± SEM", "setting": "MCF-12A cells; 48 h of incubation", "result": "−4.039 ± 0.023"}, {"measurement": "IC50", "setting": "MCF-12A cells; [5]", "result": 91.5, "unit": "µM"}, {"measurement": "logIC50 ± SEM", "setting": "MCF-12A cells; 72 h of incubation", "result": "−4.048 ± 0.068"}, {"measurement": "IC50", "setting": "MCF-12A cells; [6]", "result": 89.5, "unit": "µM"}, {"measurement": "Ki-67 index of tumors", "setting": "MDA-MB-231 breast tumors", "result": "significantly decreased"}, {"measurement": "TUNEL-positive cells in tumors (DNA damage)", "setting": "MDA-MB-231 breast tumors", "result": "significant increase"}, {"measurement": "mitotic count in tumors", "setting": "MDA-MB-231 breast tumors", "result": "mitotic count of vehicle-treated animals was significantly increased compared to cisplatin- and Pd2Spm-treated groups"}, {"measurement": "hematologic analysis (RBC, Hb, Htc, MCV, MCH) versus vehicle", "setting": "[3]", "result": "no significant deviations"}, {"measurement": "plasma biochemical analysis (urea, creatinine, glucose, AST, ALT, total proteins, triglycerides, total cholesterol) versus vehicle", "setting": "[3]", "result": "did not reveal changes"}, {"measurement": "angiogenesis in CAM at single concentration", "setting": "[1]; 8 µM (4.46 µg/mL)", "result": "significantly inhibited angiogenesis"}, {"measurement": "CAM early steps of angiogenesis: number of nodes, junctions and segments", "setting": "[1]", "result": "decrease, in a dose-dependent manner"}, {"measurement": "CAM later steps of angiogenesis: total length, total branching length and total segment length", "setting": "[1]", "result": "reduced, in a dose-dependent manner"}, {"measurement": "amount accumulated in breast cancer cells relative to cisplatin", "setting": "breast cancer cells", "result": "approximately four times lower"}, {"measurement": "accumulation in major organs relative to cisplatin", "setting": "[4]", "result": "lower accumulation in major organs"}, {"measurement": "serum terminal half-life relative to cisplatin", "setting": "[4]", "result": "very similar serum terminal half-life to cisplatin"}, {"measurement": "IC50 values", "setting": "MDA-MB-231", "result": "within a low micromolar range"}, {"measurement": "IC50 values", "setting": "MDA-MB-468 TNBC cells", "result": "within a low micromolar range"}]}
